# Results from patent US9145415B2, “Nitrogen-containing heterocyclic compound or salt thereof” (FUJIFILM Corporation, priority 2012, dated 2015).
# Where two headings read alike, the source gives them in different places.
# Legend:
# Molm-13 cells = test: Leukemia cell proliferation inhibition test (ATPlite), Molm-13; format: cell-based; conditions: Homo sapiens, read-out: MOLM13 cell proliferation inhibition effect
# Method in brief: (§1)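 Molm-13 or MV4-11 cells in RPMI with 10% FBS and pen/strep, seeded at 10,000 cells per well, were exposed to serially diluted compound for 72 hours at 37° C, 5% CO2. Total cellular ATP was read by luciferase luminescence. GI50 came from sigmoid fits against the 0.1% DMSO control, in duplicate.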
# [1] = molecular target: T1, human FLT3 protein (FLT3 (WT)) (Homo sapiens, UniProt P36888); test: FLT3 inhibition test (FLT3 enzyme inhibition, time-resolved fluorescence of substrate peptide phosphorylation); format: biochemical; conditions: read-out: FLT3 (WT) enzyme inhibition activity
# T1 construct: human FLT3 protein (intracellular region, 564 to 993 aa); GST; purchased Carna Biosciences; host or cells: baculovirus expression system
# T1 sequence (P36888 564-993): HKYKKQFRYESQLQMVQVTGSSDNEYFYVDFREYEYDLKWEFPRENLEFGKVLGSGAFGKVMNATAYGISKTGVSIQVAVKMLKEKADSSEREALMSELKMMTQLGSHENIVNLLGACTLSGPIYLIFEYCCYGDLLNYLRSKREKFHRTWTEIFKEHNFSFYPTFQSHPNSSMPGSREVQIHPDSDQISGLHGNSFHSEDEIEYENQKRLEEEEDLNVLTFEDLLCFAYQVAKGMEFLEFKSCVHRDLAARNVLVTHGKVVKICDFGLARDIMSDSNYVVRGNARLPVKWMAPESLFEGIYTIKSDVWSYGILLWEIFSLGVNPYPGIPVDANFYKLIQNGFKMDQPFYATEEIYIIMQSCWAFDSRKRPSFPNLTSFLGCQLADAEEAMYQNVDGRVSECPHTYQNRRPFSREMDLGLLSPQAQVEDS
# Method in brief: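 Substrate peptide phosphorylation detected by time-resolved fluorescence after a 30 min kinase reaction at 25° C with 50 μM ATP (final). Beforehand, compound and FLT3 (WT, 1.2 μg) stood 15 min at 25° C in HEPES buffer pH 7.5 containing MgCl2, NaCl, BSA and DTT.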
# MV4-11 cells = test: Leukemia cell proliferation inhibition test (ATPlite), MV4-11; format: cell-based; conditions: Homo sapiens, read-out: MV4-11 cell proliferation inhibition effect
# Method in brief: as §1
# [2] = MOLM-13, 72 h, Molm-13, 72 hours culture, ATPlite, GI50 per method
# [3] = GST-fused human FLT3 (564 to 993 aa), ATP 50 μM
# [4] = MV4-11, 72 h, MV4-11, 72 hours culture, ATPlite, GI50 per method
Structure (SMILES),IC50 (Molm-13 cells; [2]) [nM],"IC50 [1, 3] [nM]",IC50 (MV4-11 cells; [4]) [nM],"IC50 (Molm-13 cells; MOLM-13, MOLM13 cell) [nM]",IC50 ([1]; FLT3 (WT)) [nM],"IC50 (MV4-11 cells; MV4-11, MV4-11 cell) [nM]"
"C[C@@H](C(=O)NCCCC#Cc1cnc(Nc2ccnc(F)c2)nc1NC1CC1)N(C)C(=O)/C=C/CN(C)C [Compound 9-15, (S,E)-N-(1-((5-(4-(Cyclopropylamino)-2-((2-fluoropyridin-4-yl)amino)pyrimidin-5-yl)-4-pentyn-1-yl)amino)-1-oxopropan-2-yl)-4-(dimethylamino)-N-methyl-2-butenamide]",< 10,< 10,< 10,–,–,–
CCCNc1nc(Nc2ccc(F)c(F)c2)ncc1C#CCCCNC(=O)[C@H](C)N(C)C(=O)/C=C/CN(C)C [Compound 7-41],< 10,< 10,< 10,–,–,–
CCCNc1nc(Nc2cccc(F)c2)ncc1C#CCCCNC(=O)[C@@H]1C[C@H](OC)CN1C(=O)/C=C/CN(C)C [Compound 7-59],< 10,< 10,< 10,–,–,–
CCCNc1nc(Nc2cccc3[nH]ncc23)ncc1C#CCCCNC(=O)[C@H](C)N(C)C(=O)/C=C/CN(C)C [Compound 21-54],–,–,–,100 to 1000,10 to 100,10 to 100
CNc1nc(Nc2ccc3cn[nH]c3c2)ncc1C#CCCCNC(=O)[C@H](C)N(C)C(=O)/C=C/CN(C)C [Compound 10-63],< 10,< 10,< 10,–,–,–
"CNc1nc(Nc2ccc(F)cc2)ncc1C#CCCCNC(=O)[C@@H]1CCN1C(=O)/C=C/CN(C)C [Compound 7-86, (S,E)-1-(4-(Dimethylamino)-2-butenoyl)-N-(5-(2-((4-fluorophenyl)amino)-4-(methylamino)pyrimidin-5-yl)-4-pentyn-1-yl)azetidine-2-carboxamide]",< 10,< 10,< 10,–,–,–
C[C@@H](C(=O)N[C@H]1CCC[C@@H](C#Cc2cnc(Nc3ccnc(F)c3)nc2NC2CC2)C1)N(C)C(=O)/C=C/CN(C)C [Compound 14-2],< 10,< 10,< 10,–,–,–
CCCNc1nc(Nc2cccc(F)c2)ncc1CNc1cccc(NC(=O)[C@H](C)N(C)C(=O)/C=C/CN(C)C)c1 [Compound 6-21],100 to 1000,10 to 100,100 to 1000,–,–,–
"CCCNc1nc(Nc2ccnc(OC)c2)ncc1C#CCCCNC(=O)CN(C)C(=O)/C=C/CN(C)C [Compound 9-38, (E)-4-(Dimethylamino)-N-(2-((5-(2-((2-methoxypyridin-4-yl)amino)-4-(propylamino)pyrimidin-5-yl)-4-pentyn-1-yl)amino)-2-oxoethyl)-N-methyl-2-butenamide]",< 10,< 10,< 10,–,–,–
CCCNc1nc(Nc2cnc3c(c2)c(OC)nn3C)ncc1C#CCCCNC(=O)[C@@H]1CCCN1C(=O)/C=C/CN(C)C [Compound 22-47],–,–,–,< 10,< 10,< 10
COc1nc(Nc2ccc(F)nc2)ncc1C#C[C@@H]1CCC[C@H](NC(=O)[C@H](C)N(C)C(=O)/C=C/CN(C)C)C1 [Compound 15-2],10 to 100,< 10,< 10,–,–,–
C[C@@H](C(=O)NCCCC#Cc1cnc(Nc2cccc(F)c2)nc1Nc1ccc(C#N)cc1)N(C)C(=O)/C=C/CN(C)C [Compound 7-14],10 to 100,< 10,< 10,–,–,–
CCCN(C)c1nc(Nc2cccc(C#N)c2)ncc1C#CCCCNC(=O)[C@H](C)N(C)C(=O)/C=C/CN(C)C [Compound 9-3],10 to 100,< 10,< 10,–,–,–
C[C@@H](C(=O)NCCCC#Cc1cnc(Nc2ccc(C#N)cc2)nc1NCCCF)N(C)C(=O)/C=C/CN(C)C [Compound 10-29],< 10,< 10,< 10,–,–,–
C[C@@H](C(=O)NCCCC#Cc1cnc(Nc2ccc(C#N)cc2)nc1-n1cncn1)N(C)C(=O)/C=C/CN(C)C [Compound 20-4],10 to 100,< 10,10 to 100,–,–,–
CCCNc1nc(Nc2cccc(F)c2)ncc1C#CCCCNC(=O)[C@@H]1C[C@H](O)CN1C(=O)/C=C/CN(C)C [Compound 7-67],< 10,< 10,< 10,–,–,–

Structure (SMILES),IC50 (Molm-13 cells; [2]) [nM],"IC50 [1, 3] [nM]",IC50 (MV4-11 cells; [4]) [nM],"IC50 (Molm-13 cells; MOLM-13, MOLM13 cell) [nM]",IC50 ([1]; FLT3 (WT)) [nM],"IC50 (MV4-11 cells; MV4-11, MV4-11 cell) [nM]"
C[C@@H](C(=O)Nc1cccc(C#Cc2cnc(Nc3ccc(C#N)cc3)nc2NC2CC2)n1)N(C)C(=O)/C=C/CN(C)C [Compound 8-18],10 to 100,< 10,10 to 100,–,–,–
"CCCNc1nc(Nc2ccc(C#N)cc2)ncc1C(=O)Nc1cccc(NC(=O)[C@H](C)N(C)C(=O)/C=C/CN(C)C)c1 [Compound 6-1, (S,E)-2-((4-cyanophenyl)amino)-N-(3-(2-(4-(dimethylamino)-N-methyl-2-butenamido)propanamido)phenyl)-4-(propylamino)pyrimidine-5-carboxamide]",10 to 100,< 10,< 10,–,–,–
C[C@@H](C(=O)N[C@H]1CCC[C@@H](C#Cc2cnc(Nc3cccc(C#N)c3)nc2NC2CC2)C1)N(C)C(=O)/C=C/CN(C)C [Compound 21-47],–,–,–,< 10,< 10,< 10
COCCN(C)c1nc(Nc2ccc(C#N)cc2)ncc1C#CCCCNC(=O)[C@H](C)N(C)C(=O)/C=C/CN(C)C [Compound 10-51],< 10,< 10,< 10,–,–,–
"CNc1nc(Nc2ccc(C#N)cc2)ncc1C#CCCCNC(=O)CN(C)C(=O)/C=C/CN(C)C [Compound 7-88, (E)-N-(2-((5-(2-((4-Cyanophenyl)amino)-4-(methylamino)pyrimidin-5-yl)-4-pentyn-1-yl)amino)-2-oxoethyl)-4-(dimethylamino)-N-methyl-2-butenamide]",< 10,< 10,< 10,–,–,–
C[C@@H](C(=O)NCCCC#Cc1cnc(Nc2ccc3cnn(C)c3c2)nc1NC1CC1)N(C)C(=O)/C=C/CN(C)C [Compound 10-58],< 10,< 10,< 10,–,–,–
CCCNc1nc(Nc2ccc(Cn3ccnn3)cc2)ncc1C#CCCCNC(=O)CN(C)C(=O)/C=C/CN(C)C [Compound 12-12],< 10,10 to 100,10 to 100,–,–,–
"CCCNc1nc(Nc2ccc(C#N)cc2)ncc1C#CCCCNC(=O)[C@@H]1CCCN1C(=O)/C=C/CN(C)C [Compound 7-33, (S,E)-N-(5-(2-((4-Cyanophenyl)amino)-4-(propylamino)pyrimidin-5-yl)-4-pentyn-1-yl)-1-(4-(dimethylamino)-2-butenoyl)pyrrolidine-2-carboxamide]",< 10,< 10,< 10,–,–,–
CCCNc1nc(Nc2cccc(C#N)c2)ncc1C#C[C@@H]1CCC[C@H](NC(=O)[C@H](C)N(C)C(=O)/C=C/CN(C)C)C1 [Compound 13-7],< 10,< 10,< 10,–,–,–
"CCCNc1nc(Nc2ccc3c(cnn3C)c2)ncc1C#CCCCNC(=O)[C@@H]1CCCN1C(=O)/C=C/CN(C)C [Compound 22-31, (S,E)-1-(4-(Dimethylamino)-2-butenoyl)-N-(5-(2-((1-methyl-1H-indazol-5-yl)amino)-4-(propylamino)pyrimidin-5-yl)-4-pentyn-1-yl)pyrrolidine-2-carboxamide]",–,–,–,< 10,< 10,< 10
CCCNc1nc(Nc2ccc(C(N)=O)cc2)ncc1C(=O)Nc1cccc(NC(=O)[C@H](C)N(C)C(=O)/C=C/CN(C)CCO)c1 [Compound 4-9],< 10,< 10,< 10,–,–,–
CNc1nc(Nc2ccnc(OC)c2)ncc1C#CCCCNC(=O)[C@H](C)N(C)C(=O)/C=C/CN(C)C [Compound 9-39],< 10,< 10,< 10,–,–,–
CNc1nc(Nc2cccc(F)c2)ncc1C#CCCCNC(=O)[C@@H]1CCCN1C(=O)/C=C/CN(C)C [Compound 7-77],< 10,< 10,< 10,–,–,–
COCCNc1nc(Nc2ccc(C#N)cc2)ncc1C#C[C@@H]1CCC[C@H](NC(=O)[C@H](C)N(C)C(=O)/C=C/CN(C)C)C1 [Compound 22-39],–,–,–,< 10,< 10,< 10
C=CC(=O)N(C)CC(=O)NCCCNC(=O)c1cnc(NCCc2ccncc2)nc1NCCC [Compound 2-23],< 10,< 10,10 to 100,–,–,–
"CCCNc1nc(Nc2ccnc(OC)c2)ncc1C#CCCCNC(=O)[C@@H]1C[C@H](F)CN1C(=O)/C=C/CN(C)C [Compound 9-37, (2S,4S)-1-((E)-4-(Dimethylamino)-2-butenoyl)-4-fluoro-N-(5-(2-((2-methoxypyridin-4-yl)amino)-4-(propylamino)pyrimidin-5-yl)-4-pentyn-1-yl)pyrrolidine-2-carboxamide]",< 10,< 10,< 10,–,–,–
